From US20020137929A1, “1 - (3-heterocyclylphenyl) isothiourea, -isourea, -guanidine and -amidine herbicidal agents” (Intellectual Property Department, BASF Aktiengesellschaft, priority 1998, published 2002)

Tests used:
CYPIR (Rice Flatsedge) [1] = assay: Preemergence weed control under flooded paddy conditions; assay type: in vivo, Cyperus iria; conditions: rated 3-4 weeks after treatment
How it was run: (§1)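 Herbicidal effect is scored visually on a 0-9 scale against an untreated control, three to four weeks after compounds are pipetted into the flood water (1.5 to 3 cm deep) over seeds planted in silt loam at 0.5 cm depth. Rates: about 0.0313 to 0.500 kg/ha.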

ZEAMX (Corn, Field) = assay: Preemergence herbicidal evaluation; assay type: in vivo, Zea mays; conditions: rated 4-5 weeks after treatment
How it was run: (§2)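 Test compound, dissolved in aqueous acetone, was sprayed over planted soil cups at an equivalent of about 0.0156 to 0.500 kg/ha; seeds had been mixed with potting soil. Greenhouse growth followed, with visual 0-9 scoring of injury at four to five weeks.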

SETVI (Foxtail, Green) = assay: Postemergence herbicidal evaluation; assay type: in vivo, Setaria viridis; conditions: postemergence
How it was run: (§3)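 First, seedlings were raised for around two weeks. Next, test material in 50/50 acetone/water containing 0.5% TWEEN 20 was sprayed through a nozzle at 40 psi, equivalent to about 0.0156–0.500 kg/ha. Finally, after 4–5 weeks in the greenhouse, plants were rated 0–9.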

CYPSE (Flatsedge) = assay: Postemergence weed control under flooded paddy conditions; assay type: in vivo, Cyperus serotinus; conditions: postemergence weeds, rated 3 to 4 weeks after treatment
How it was run: (§4)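 Flood-water application, about 0.0313–0.500 kg/ha a.i. in aqueous/acetone 50/50 v/v; water depth 1.5–3 cm throughout. Weeds 3–5 cm, rice 1.5–2.5 leaf. Greenhouse; 0–9 visual rating vs control at 3–4 wk.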

[2] = test system: TRZAWR (Wheat, Winter, cv Riband); assay: Preemergence herbicidal evaluation; assay type: in vivo, Triticum aestivum; conditions: rated 4-5 weeks after treatment
How it was run: as §2

ABUTH (Velvetleaf) = assay: Postemergence herbicidal evaluation; assay type: in vivo, Abutilon theophrasti; conditions: postemergence
How it was run: as §3

[3] = test system: ECHORC (Watergrass (Calif.)); assay: Preemergence weed control under flooded paddy conditions; assay type: in vivo, Echinochloa oryzoides; conditions: rated 3-4 weeks after treatment
How it was run: as §1

ORYSAT (Rice, Tebonnet) = assay: Postemergence herbicidal evaluation; assay type: in vivo, Oryza sativa, (L.) Tebonnet; conditions: postemergence
How it was run: as §3

CYPIR (Rice Flatsedge) [4] = assay: Postemergence weed control under flooded paddy conditions; assay type: in vivo, Cyperus iria; conditions: postemergence weeds, rated 3 to 4 weeks after treatment
How it was run: as §4

[5] = test system: SAGPY (Arrowhead (Pygmaea)); assay: as above; assay type: in vivo, Sagittaria pygmaea; conditions: postemergence weeds, rated 3 to 4 weeks after treatment
How it was run: as §4

[6] = test system: IPOHE (Morningglory, Ivyleaf); assay: Preemergence herbicidal evaluation; assay type: in vivo, Ipomoea hederacea; conditions: rated 4-5 weeks after treatment
How it was run: as §2

ECHCG (Barnyardgrass) = assay: Postemergence herbicidal evaluation; assay type: in vivo, Echinochloa crus-galli; conditions: postemergence
How it was run: as §3

GALAP (Galium) = assay: Postemergence herbicidal evaluation; assay type: in vivo, Galium aparine; conditions: postemergence
How it was run: as §3

## C[C@H](C(=O)O)N1C(=O)CSC1=Nc1cc(-n2c(=O)cc(C(F)(F)F)n(C)c2=O)c(F)cc1Cl [Compound 70, 2-{{2-Chloro-5-[3,6-dihydro-3-methyl-2,6-dioxo-4-(trifluoromethyl)-1(2H)-pyrimidinyl]-4-fluoro-phenyl}imino}-α-methyl-4-oxo-3-thiazolidineacetic acid, D-]
CYPIR (Rice Flatsedge) [1]; 0.0313 kg/ha
  CYPIR herbicidal effect rating: 0.0
CYPIR (Rice Flatsedge) [1]; 0.0625 kg/ha
  CYPIR herbicidal effect rating: 2.0
CYPIR (Rice Flatsedge) [1]; 0.1250 kg/ha
  CYPIR herbicidal effect rating: 2.0
CYPIR (Rice Flatsedge) [1]; 0.2500 kg/ha
  CYPIR herbicidal effect rating: 2.0
ZEAMX (Corn, Field); rate 0.0156 kg/ha
  Preemergence herbicidal rating ZEAMX: 0.0
ZEAMX (Corn, Field); rate 0.0313 kg/ha
  Preemergence herbicidal rating ZEAMX: 0.0
ZEAMX (Corn, Field); rate 0.0625 kg/ha
  Preemergence herbicidal rating ZEAMX: 0.0
ZEAMX (Corn, Field); rate 0.1250 kg/ha
  Preemergence herbicidal rating ZEAMX: 1.0
ZEAMX (Corn, Field); rate 0.2500 kg/ha
  Preemergence herbicidal rating ZEAMX: 3.0
SETVI (Foxtail, Green); rate 0.0158 kg/ha
  SETVI herbicidal rating: 1.0
SETVI (Foxtail, Green); rate 0.0315 kg/ha
  SETVI herbicidal rating: 2.0
SETVI (Foxtail, Green); rate 0.0630 kg/ha
  SETVI herbicidal rating: 9.0
CYPSE (Flatsedge); Rate 0.0313 kg/ha
  Herbicidal rating CYPSE: 0.0
CYPSE (Flatsedge); Rate 0.0625 kg/ha
  Herbicidal rating CYPSE: 0.0
CYPSE (Flatsedge); Rate 0.1250 kg/ha
  Herbicidal rating CYPSE: 0.0
CYPSE (Flatsedge); Rate 0.2500 kg/ha
  Herbicidal rating CYPSE: 3.0
[2]; rate 0.0156 kg/ha
  Preemergence herbicidal rating TRZAWR: 0.0
[2]; rate 0.0313 kg/ha
  Preemergence herbicidal rating TRZAWR: 0.0
[2]; rate 0.0625 kg/ha
  Preemergence herbicidal rating TRZAWR: 0.0
[2]; rate 0.1250 kg/ha
  Preemergence herbicidal rating TRZAWR: 1.0
[2]; rate 0.2500 kg/ha
  Preemergence herbicidal rating TRZAWR: 5.0
ABUTH (Velvetleaf); rate 0.0158 kg/ha
  ABUTH herbicidal rating: 1.0
ABUTH (Velvetleaf); rate 0.0315 kg/ha
  ABUTH herbicidal rating: 6.0
ABUTH (Velvetleaf); rate 0.0630 kg/ha
  ABUTH herbicidal rating: 9.0
[3]; 0.0313 kg/ha
  ECHORC herbicidal effect rating: 0.0
[3]; 0.0625 kg/ha
  ECHORC herbicidal effect rating: 0.0
[3]; 0.1250 kg/ha
  ECHORC herbicidal effect rating: 0.0
[3]; 0.2500 kg/ha
  ECHORC herbicidal effect rating: 0.0
ORYSAT (Rice, Tebonnet); rate 0.0158 kg/ha
  ORYSAT herbicidal rating: 2.5
ORYSAT (Rice, Tebonnet); rate 0.0315 kg/ha
  ORYSAT herbicidal rating: 3.5
ORYSAT (Rice, Tebonnet); rate 0.0630 kg/ha
  ORYSAT herbicidal rating: 5.0
CYPIR (Rice Flatsedge) [4]; Rate 0.0313 kg/ha
  Herbicidal rating CYPIR: 0.0
CYPIR (Rice Flatsedge) [4]; Rate 0.0625 kg/ha
  Herbicidal rating CYPIR: 2.0
CYPIR (Rice Flatsedge) [4]; Rate 0.1250 kg/ha
  Herbicidal rating CYPIR: 2.0
CYPIR (Rice Flatsedge) [4]; Rate 0.2500 kg/ha
  Herbicidal rating CYPIR: 2.0
[5]; Rate 0.0313 kg/ha
  Herbicidal rating SAGPY: 4.0
[5]; Rate 0.0625 kg/ha
  Herbicidal rating SAGPY: 4.0
[5]; Rate 0.1250 kg/ha
  Herbicidal rating SAGPY: 4.0
[5]; Rate 0.2500 kg/ha
  Herbicidal rating SAGPY: 4.0
[6]; rate 0.0156 kg/ha
  Preemergence herbicidal rating IPOHE: 0.0
[6]; rate 0.0313 kg/ha
  Preemergence herbicidal rating IPOHE: 0.0
[6]; rate 0.0625 kg/ha
  Preemergence herbicidal rating IPOHE: 0.0
[6]; rate 0.1250 kg/ha
  Preemergence herbicidal rating IPOHE: 1.0
[6]; rate 0.2500 kg/ha
  Preemergence herbicidal rating IPOHE: 5.0
ECHCG (Barnyardgrass); rate 0.0158 kg/ha
  ECHCG herbicidal rating: 0.0
ECHCG (Barnyardgrass); rate 0.0315 kg/ha
  ECHCG herbicidal rating: 2.0
ECHCG (Barnyardgrass); rate 0.0630 kg/ha
  ECHCG herbicidal rating: 9.0
GALAP (Galium); rate 0.0158 kg/ha
  GALAP herbicidal rating: 0.0
GALAP (Galium); rate 0.0315 kg/ha
  GALAP herbicidal rating: 0.0
GALAP (Galium); rate 0.0630 kg/ha
  GALAP herbicidal rating: 3.0

## COC(=O)C(Cc1ccc(Cl)cc1)N1C(=O)CSC1=Nc1cc(-n2c(=O)cc(C(F)(F)F)n(C)c2=O)c(F)cc1Cl (racemic) [Compound 77, Methyl α-(p-chlorobenzyl)-2-{{2-chloro-5-[3,6-dihydro-3-methyl-2,6-dioxo-4-(trifluoromethyl)-1(2H)-pyrimidinyl]-4-fluorophenyl}imino}-4-oxo-3-thiazolidineacetate, DL-]
CYPIR (Rice Flatsedge) [1]; 0.0313 kg/ha
  CYPIR herbicidal effect rating: 0.0
CYPIR (Rice Flatsedge) [1]; 0.0625 kg/ha
  CYPIR herbicidal effect rating: 0.0
CYPIR (Rice Flatsedge) [1]; 0.1250 kg/ha
  CYPIR herbicidal effect rating: 0.0
CYPIR (Rice Flatsedge) [1]; 0.2500 kg/ha
  CYPIR herbicidal effect rating: 0.0
ZEAMX (Corn, Field); rate 0.0156 kg/ha
  Preemergence herbicidal rating ZEAMX: 2.0
ZEAMX (Corn, Field); rate 0.0313 kg/ha
  Preemergence herbicidal rating ZEAMX: 0.0
ZEAMX (Corn, Field); rate 0.0625 kg/ha
  Preemergence herbicidal rating ZEAMX: 0.0
ZEAMX (Corn, Field); rate 0.1250 kg/ha
  Preemergence herbicidal rating ZEAMX: 0.0
ZEAMX (Corn, Field); rate 0.2500 kg/ha
  Preemergence herbicidal rating ZEAMX: 1.0
SETVI (Foxtail, Green); rate 0.0158 kg/ha
  SETVI herbicidal rating: 1.0
SETVI (Foxtail, Green); rate 0.0315 kg/ha
  SETVI herbicidal rating: 6.0
SETVI (Foxtail, Green); rate 0.0630 kg/ha
  SETVI herbicidal rating: 7.0
CYPSE (Flatsedge); Rate 0.0313 kg/ha
  Herbicidal rating CYPSE: 0.0
CYPSE (Flatsedge); Rate 0.0625 kg/ha
  Herbicidal rating CYPSE: 0.0
CYPSE (Flatsedge); Rate 0.1250 kg/ha
  Herbicidal rating CYPSE: 0.0
CYPSE (Flatsedge); Rate 0.2500 kg/ha
  Herbicidal rating CYPSE: 4.0
[2]; rate 0.0156 kg/ha
  Preemergence herbicidal rating TRZAWR: 0.0
[2]; rate 0.0313 kg/ha
  Preemergence herbicidal rating TRZAWR: 0.0
[2]; rate 0.0625 kg/ha
  Preemergence herbicidal rating TRZAWR: 0.0
[2]; rate 0.1250 kg/ha
  Preemergence herbicidal rating TRZAWR: 1.0
[2]; rate 0.2500 kg/ha
  Preemergence herbicidal rating TRZAWR: 0.0
ABUTH (Velvetleaf); rate 0.0158 kg/ha
  ABUTH herbicidal rating: 9.0
ABUTH (Velvetleaf); rate 0.0315 kg/ha
  ABUTH herbicidal rating: 9.0
ABUTH (Velvetleaf); rate 0.0630 kg/ha
  ABUTH herbicidal rating: 9.0
[3]; 0.0313 kg/ha
  ECHORC herbicidal effect rating: 9.0
[3]; 0.0625 kg/ha
  ECHORC herbicidal effect rating: 9.0
[3]; 0.1250 kg/ha
  ECHORC herbicidal effect rating: 9.0
[3]; 0.2500 kg/ha
  ECHORC herbicidal effect rating: 9.0
ORYSAT (Rice, Tebonnet); rate 0.0158 kg/ha
  ORYSAT herbicidal rating: 2.0
ORYSAT (Rice, Tebonnet); rate 0.0315 kg/ha
  ORYSAT herbicidal rating: 2.0
ORYSAT (Rice, Tebonnet); rate 0.0630 kg/ha
  ORYSAT herbicidal rating: 3.0
CYPIR (Rice Flatsedge) [4]; Rate 0.0313 kg/ha
  Herbicidal rating CYPIR: 0.0
CYPIR (Rice Flatsedge) [4]; Rate 0.0625 kg/ha
  Herbicidal rating CYPIR: 0.0
CYPIR (Rice Flatsedge) [4]; Rate 0.1250 kg/ha
  Herbicidal rating CYPIR: 0.0
CYPIR (Rice Flatsedge) [4]; Rate 0.2500 kg/ha
  Herbicidal rating CYPIR: 0.0
[5]; Rate 0.0313 kg/ha
  Herbicidal rating SAGPY: 0.0
[5]; Rate 0.0625 kg/ha
  Herbicidal rating SAGPY: 0.0
[5]; Rate 0.1250 kg/ha
  Herbicidal rating SAGPY: 0.0
[5]; Rate 0.2500 kg/ha
  Herbicidal rating SAGPY: 0.0
[6]; rate 0.0156 kg/ha
  Preemergence herbicidal rating IPOHE: 1.0
[6]; rate 0.0313 kg/ha
  Preemergence herbicidal rating IPOHE: 0.0
[6]; rate 0.0625 kg/ha
  Preemergence herbicidal rating IPOHE: 0.0
[6]; rate 0.1250 kg/ha
  Preemergence herbicidal rating IPOHE: 0.0
[6]; rate 0.2500 kg/ha
  Preemergence herbicidal rating IPOHE: 2.0
ECHCG (Barnyardgrass); rate 0.0158 kg/ha
  ECHCG herbicidal rating: 1.0
ECHCG (Barnyardgrass); rate 0.0315 kg/ha
  ECHCG herbicidal rating: 1.0
ECHCG (Barnyardgrass); rate 0.0630 kg/ha
  ECHCG herbicidal rating: 1.0
GALAP (Galium); rate 0.0158 kg/ha
  GALAP herbicidal rating: 1.0
GALAP (Galium); rate 0.0315 kg/ha
  GALAP herbicidal rating: 1.0
GALAP (Galium); rate 0.0630 kg/ha
  GALAP herbicidal rating: 7.0
